# Test results taken from ChEMBL document CHEMBL2074016, “Comparative studies on in vitro methods for evaluating in vivo function of MDR1 P-glycoprotein” (Pharm Res, 2001).
# Columns and labels:
# [1] = molecular target: T1, ATP-dependent translocase ABCB1 (Homo sapiens, UniProt P08183); assay: (§1) TP_TRANSPORTER: ATP hydrolysis in membrane fraction from High Five (BTI-TN5B1-4) cells; format: functional, cell membranes, BTI-TN-5B1-4; settings: bti-tn-5b1-4
# [2] = molecular target: P-glycoprotein 1 and 3 (MDR1a/MDR1b) (Mus musculus, UniProt P21447+P06795); assay: TP_TRANSPORTER: increase in brain concentration in mdr1a/1b(-/-) mouse; format: functional, organism-based; settings: in vivo
# [3] = molecular target: T1, ATP-dependent translocase ABCB1; assay: TP_TRANSPORTER: transepithelial transport (apical to basal) of Daunorubicin (Daunomycin) at a concentration of 200 nM in MDR1-expressing LLC-PK1 cells; format: functional, cell-based; settings: pig, llc-pk1, 0.2 µM
# [4] = molecular target: T1, ATP-dependent translocase ABCB1; assay: TP_TRANSPORTER: transepithelial transport (apical to basal) of Dexamethasone at a concentration of 24.7 nM in MDR1-expressing LLC-PK1 cells; format: functional, cell-based; settings: pig, llc-pk1, 0.0247 µM
# [5] = molecular target: T1, ATP-dependent translocase ABCB1; assay: TP_TRANSPORTER: transepithelial transport (apical to basal) of Digoxin at a concentration of 52.6 nM in MDR1-expressing LLC-PK1 cells; format: functional, cell-based; settings: pig, llc-pk1, 0.0526 µM
# [6] = molecular target: ATP-dependent translocase ABCB1 (P-glycoprotein) (Homo sapiens, UniProt P08183); assay: as §1; format: functional, cell membranes, BTI-TN-5B1-4; settings: membrane fraction from High Five (BTI-TN5B1-4) cells
# Sequence of ATP-dependent translocase ABCB1 (P-glycoprotein) (P08183 whole entry): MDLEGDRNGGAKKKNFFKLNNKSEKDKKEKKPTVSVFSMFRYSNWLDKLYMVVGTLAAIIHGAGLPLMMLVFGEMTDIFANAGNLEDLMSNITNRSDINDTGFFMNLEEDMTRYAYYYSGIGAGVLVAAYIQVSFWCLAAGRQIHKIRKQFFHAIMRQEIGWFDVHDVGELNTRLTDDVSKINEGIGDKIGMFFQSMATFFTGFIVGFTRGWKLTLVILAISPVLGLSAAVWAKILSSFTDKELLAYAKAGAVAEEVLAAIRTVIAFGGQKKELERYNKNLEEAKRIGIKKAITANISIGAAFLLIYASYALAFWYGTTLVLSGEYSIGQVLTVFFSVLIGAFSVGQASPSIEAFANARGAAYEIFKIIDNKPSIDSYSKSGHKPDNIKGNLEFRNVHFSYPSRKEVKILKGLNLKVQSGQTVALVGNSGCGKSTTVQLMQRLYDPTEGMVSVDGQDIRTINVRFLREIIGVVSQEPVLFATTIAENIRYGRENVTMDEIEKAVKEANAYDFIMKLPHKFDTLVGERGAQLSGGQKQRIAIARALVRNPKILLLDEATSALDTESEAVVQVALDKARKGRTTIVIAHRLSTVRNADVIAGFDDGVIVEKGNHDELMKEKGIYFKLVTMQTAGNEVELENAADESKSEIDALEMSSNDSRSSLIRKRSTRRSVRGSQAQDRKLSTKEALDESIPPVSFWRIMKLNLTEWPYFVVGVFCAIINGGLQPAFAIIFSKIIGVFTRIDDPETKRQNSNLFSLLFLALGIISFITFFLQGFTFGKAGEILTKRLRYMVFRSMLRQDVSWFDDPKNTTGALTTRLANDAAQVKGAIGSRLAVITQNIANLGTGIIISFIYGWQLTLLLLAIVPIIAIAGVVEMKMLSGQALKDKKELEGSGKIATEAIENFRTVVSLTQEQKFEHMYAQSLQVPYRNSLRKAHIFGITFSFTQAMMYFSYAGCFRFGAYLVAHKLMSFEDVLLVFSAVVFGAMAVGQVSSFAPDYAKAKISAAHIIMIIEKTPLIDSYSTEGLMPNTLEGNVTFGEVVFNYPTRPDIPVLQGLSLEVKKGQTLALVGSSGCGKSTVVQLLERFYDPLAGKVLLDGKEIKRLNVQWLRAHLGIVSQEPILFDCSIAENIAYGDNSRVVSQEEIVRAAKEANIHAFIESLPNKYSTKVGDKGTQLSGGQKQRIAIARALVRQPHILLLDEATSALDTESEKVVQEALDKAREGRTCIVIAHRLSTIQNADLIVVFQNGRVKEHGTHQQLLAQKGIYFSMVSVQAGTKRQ
# [7] = molecular target: T1, ATP-dependent translocase ABCB1; assay: TP_TRANSPORTER: transepithelial transport (apical to basal) of Loperamide at a concentration of 1 uM in MDR1-expressing LLC-PK1 cells; format: functional, cell-based; settings: pig, llc-pk1, 1 µM
# [8] = molecular target: T1, ATP-dependent translocase ABCB1; assay: TP_TRANSPORTER: transepithelial transport (apical to basal) of Progesterone at 7 nM in MDR1-expressing LLC-PK1 cells; format: functional, cell-based; settings: pig, llc-pk1, 0.007 µM
# [9] = molecular target: T1, ATP-dependent translocase ABCB1; assay: TP_TRANSPORTER: transepithelial transport (apical to basal) of Vinblastine at a concentration of 22.5 nM in MDR1-expressing LLC-PK1 cells; format: functional, cell-based; settings: pig
# [10] = tested on: CN1C(=O)CN=C(c2ccccc2)c2cc(Cl)ccc21; assay: as §1; format: functional, cell membranes, BTI-TN-5B1-4
# T1 sequence (P08183 whole entry): as above
molecule,measurement,setting,value
CN/C(=N/CCSCc1nc[nH]c1C)NC#N [CIMETIDINE],Activity,[1],is not a substrate [-]
COc1cccc2c1C(=O)c1c(O)c3c(c(O)c1C2=O)C[C@@](O)(C(C)=O)C[C@@H]3O[C@H]1C[C@H](N)[C@H](O)[C@H](C)O1 [DAUNORUBICIN],Activity,[2],substrate [+]
same,Activity,[3],substrate [+]
C[C@@H]1C[C@H]2[C@@H]3CCC4=CC(=O)C=C[C@]4(C)[C@@]3(F)[C@@H](O)C[C@]2(C)[C@@]1(O)C(=O)CO [DEXAMETHASONE],Activity,[1],is not a substrate [-]
same,Activity,[4],substrate [+]
C[C@H]1O[C@@H](O[C@H]2[C@@H](O)C[C@H](O[C@H]3[C@@H](O)C[C@H](O[C@H]4CC[C@@]5(C)[C@H](CC[C@@H]6[C@@H]5C[C@@H](O)[C@]5(C)[C@@H](C7=CC(=O)OC7)CC[C@]65O)C4)O[C@@H]3C)O[C@@H]2C)C[C@H](O)[C@@H]1O [DIGOXIN],Activity,[5],substrate [+]
C[C@]12CC[C@@H]3c4ccc(O)cc4CC[C@H]3[C@@H]1CC[C@@H]2O[C@@H]1O[C@H](C(=O)O)[C@@H](O)[C@H](O)[C@H]1O [ESTRADIOL 17B GLUCURONIDE],Activity,[1],substrate [+]
CN(C)C(=O)C(CCN1CCC(O)(c2ccc(Cl)cc2)CC1)(c1ccccc1)c1ccccc1 [LOPERAMIDE],Km,[6],13.8 µM
same,Activity,[7],substrate [+]
CC(=O)[C@H]1CC[C@H]2[C@@H]3CCC4=CC(=O)CC[C@]4(C)[C@H]3CC[C@]12C [PROGESTERONE],Activity,[8],is not a substrate [-]
CC[C@]1(O)C[C@@H]2CN(CCc3c([nH]c4ccccc34)[C@@](C(=O)OC)(c3cc4c(cc3OC)N(C)[C@H]3[C@@](O)(C(=O)OC)[C@H](OC(C)=O)[C@]5(CC)C=CCN6CC[C@]43[C@@H]65)C2)C1 [VINBLASTINE],Activity,[9],substrate [+]
ATP-dependent translocase ABCB1 (Homo sapiens),Km,[10],72.4 µM
